According to patent US20090181409A1, “Optical biosensor method for cell-cell interaction” (priority 2008, published 2009):

Key:
RhoA = RhoA (Homo sapiens, UniProt P61586); settings: cited from earlier work
D1 cells = experiment: NK92 cell-induced optical signal of D1 cells (Epic RWG biosensor), modulation by pharmacological agents; format: cell-based, mouse; settings: D1 cells pretreated with agent for 1 hour before NK cells; killer:target ratio 1; 28° C.
Procedure: The impact of six pharmacological agents was examined on the NK92 cell-induced optical signal of D1 cells. […] Brefeldin A (BFA), and Camptothecin are defined above. Kp7-6 is an exocyclic cystine-knot peptide that specifically antagonizes Fas/FasL-mediated cellular apoptotic signals, for example, it can reduce 58% of FasL-induced apoptosis in Jurkat cells at 1 mg/mL. Latrunculin inhibits actin polymerization in vitro and disrupts microfilament organization as well as microfilament-mediated processes. […] Wortmannin is a potent, selective, cell-permeable and irreversible inhibitor of phosphatidylinositol 3-kinase.
Cell culture—Natural killer cells-NK92MI and the multipotent mouse bone marrow D1 cell line were from American Type Culture Collection (Manassas, Va.). NK92MI cells were grown in RPMI medium plus 12.5% horse serum and 12.5 fetal bovine serum (FBS) and antibiotics. D1 cells were grown in Dulbecco's Modified Eagle's Medium supplemented with 10% fetal bovine serum (FBS) and antibiotics. Approximately 1×10^4 to 2×10^4 target cells of D1 in 50 μL medium were placed in each well of Epic® 384-well microplate. After cell seeding, the cells were cultured at 37° C. under air/5% CO2 until a high degree, e.g., 90% of confluence was reached (about 24 hrs). Cells were continuously cultured overnight in their corresponding media without any serum to keep cells at a quiescent state and cell confluence was over about 95%.
Epic® system and DMR assays—Epic® beta system was used during this study. For cell-cell interaction study, target cell density was at about 95-100% confluence and the cells were finally maintained with the appropriate medium as described above. Cell number of NK92MI was counted with Beckman Coulter Particle Counter. Unless stated otherwise, a ratio of 1 between killer cells and target cells was used. NK92MI cells were suspended in RPMI plus 2% FBS. A 20 μL aliquot of NK92MI solution was added to each well of a normal 384-well microplate (Corning Inc., Corning, N.Y.). The plates of the target cells and the natural killer cells were incubated in the Epic® instrument for at least 30 minutes to reach 28° C. For pharmacological agent studies, the D1 cells were pretreated with the agents for 1 hour before NK cells were introduced. All studies were carried out at 28° C. for consistency and having the lid of the microplate continuously on except for a short period of time (e.g., about seconds) when the solution was introduced to minimize the effect of temperature fluctuation and evaporative cooling.

CHO-ICAM1 cells = experiment: NK92 cell-induced N-DMR signal of CHO-ICAM1 cells (Epic RWG biosensor), modulation by pharmacological agents; format: cell-based, Chinese hamster; settings: CHO-ICAM1 cells pretreated with agent for 1 hour before NK cells; killer:target ratio 1; 28° C.
Source text: The impacts of four pharmacological agents were examined on the NK92 cell-induced DMR signal of CHO-ICAM1 cells. FIG. 4 illustrate the modulation profile (response v. modulator concentration in microM) of the natural killer cell-induced DMR signal of the target cell layer by four different modulators at different doses:
Cell culture—Natural killer cells-NK92MI, both parental CHO-K1 and engineered CHO expressing ICAM1 receptor (CHO-ICAM1) were purchased from American Type Culture Collection (Manassas, Va.). NK92MI cells were grown in RPMI medium plus 12.5% horse serum and 12.5 fetal bovine serum (FBS) and antibiotics. CHO-K1 cells and CHO-ICAM1 cells were grown in RPMI supplemented with 10% fetal bovine serum (FBS) and antibiotics. Approximately 1-2×10^4 target cells of CHO-K1 or CHO-ICAM1 in 50 μl medium were placed in each well of Epic® 384-well microplate. After cell seeding, the cells were cultured at 37° C. under air/5% CO2 until a high degree, e.g. 90%, of confluence was reached (e.g., about 24 hrs). Cells were continuously cultured for over night with their corresponding media without any serum to keep cells at a quiescent state and cell confluence was over 95%.
Epic® system and DMR assays—An Epic® beta system was used during this study. For cell-cell interaction study, target cell density was at 95-100% confluence and the cells were finally maintained with the appropriate medium as described above. Cell number of NK92MI was counted with Beckman Coulter Particle Counter (Beckman Coulter, Fullerton, Calif.). Unless stated otherwise, a ratio of 1 between killer cells and target cells was used. NK92MI cells were suspended in RPMI plus 2% FBS. A 20-microliter solution of NK92MI was aliquoted to each well of a normal 384-well microplate (Corning Inc., Corning, N.Y.). The plates of the target-cell and the natural killer cell were incubated in the Epic® instrument for at least 30 minutes to reach 28° C. For pharmacological agent studies, the Icam1 cells had been pretreated with the agents for 1 hour before the NK cells were introduced. All studies were carried out at 28° C. with the lid of the microplate on except for a short period of time (e.g., about several seconds) when the solution was introduced, in order to minimize the effect of temperature fluctuation and evaporative cooling.

Sequence of RhoA (P61586 whole entry, species assumed): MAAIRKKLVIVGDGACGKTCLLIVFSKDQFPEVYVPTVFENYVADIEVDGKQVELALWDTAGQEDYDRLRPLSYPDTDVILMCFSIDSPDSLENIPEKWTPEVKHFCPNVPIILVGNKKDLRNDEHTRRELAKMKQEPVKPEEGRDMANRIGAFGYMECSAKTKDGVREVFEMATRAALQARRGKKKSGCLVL

Row | SMILES | effect on RhoA activation (RhoA) | effect on NK92-induced signals of D1 cells (D1 cells) | effect on NK92-induced N-DMR of CHO-ICAM1 cells (CHO-ICAM1 cells)
1 | CCN(CC)CCCC(C)Nc1nc(C)cc(Nc2ccc3nc(C)cc(N)c3c2)n1 (racemic) [Rac1 inhibitor] | no effect | dose dependently increases | –
2 | C[C@H]1CCC/C=C/[C@@H]2C[C@H](O)C[C@H]2[C@H](O)/C=C/C(=O)O1 [BFA, Brefeldin A] | – | dose dependently increases | dose dependently increases
3 | N#CC(=C(/N)Sc1ccccc1N)/C(C#N)=C(\N)Sc1ccccc1N [U0126] | – | – | dose-dependently suppressed
4 | CC[C@@]1(O)C(=O)OCc2c1cc1n(c2=O)Cc2cc3ccccc3nc2-1 [camptothecin, Camptothecin] | – | dose dependently increases | dose dependently increases
5 | COC(=O)CC[C@H](NC(=O)[C@H](CC(=O)OC)NC(=O)OCc1ccccc1)C(=O)N[C@H](C(=O)N[C@@H](CC(=O)OC)C(=O)CF)C(C)C [caspase 3 inhibitor] | – | – | little effect
6 | C/C1=C/C(=O)O[C@@H]2C[C@@H](CC[C@H](C)/C=C\C=C\CC1)O[C@@](O)([C@@H]1CSC(=O)N1)C2 [latrunculin A] | – | dose dependently increases | –
7 | CC[C@]1(O)C[C@@H]2CN(CCc3c([nH]c4ccccc34)[C@@](C(=O)OC)(c3cc4c(cc3OC)N(C)[C@H]3[C@@](O)(C(=O)OC)[C@H](OC(C)=O)[C@]5(CC)C=CCN6CC[C@]43[C@@H]65)C2)C1 [vinblastine, Vinblastine] | – | – | dose dependently increases
